{
  "source": "ChEMBL document CHEMBL4428076",
  "about": "(J Med Chem, 2016)",
  "key": {"[1]": {"target": "T1, Kappa-type opioid receptor (Mus musculus, UniProt P33534)", "T1 sequence (P33534 whole entry)": "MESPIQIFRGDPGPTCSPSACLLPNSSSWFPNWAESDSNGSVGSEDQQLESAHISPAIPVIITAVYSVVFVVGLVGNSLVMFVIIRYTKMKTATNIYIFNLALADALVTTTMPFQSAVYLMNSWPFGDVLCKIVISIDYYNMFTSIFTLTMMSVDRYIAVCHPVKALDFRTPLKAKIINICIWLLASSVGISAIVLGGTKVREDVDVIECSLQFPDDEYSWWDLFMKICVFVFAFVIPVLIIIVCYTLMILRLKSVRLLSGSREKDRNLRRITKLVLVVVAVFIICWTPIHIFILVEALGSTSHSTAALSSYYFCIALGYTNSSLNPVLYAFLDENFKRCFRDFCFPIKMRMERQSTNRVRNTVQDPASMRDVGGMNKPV", "experiment": "Displacement of [125I]-IBNtxA from mouse kappa opioid receptor-1 expressed in CHO cell membranes incubated for 90 mins"}, "Mu-type opioid receptor": {"target": "Mu-type opioid receptor (Mus musculus, UniProt P42866)", "sequence (P42866 whole entry)": "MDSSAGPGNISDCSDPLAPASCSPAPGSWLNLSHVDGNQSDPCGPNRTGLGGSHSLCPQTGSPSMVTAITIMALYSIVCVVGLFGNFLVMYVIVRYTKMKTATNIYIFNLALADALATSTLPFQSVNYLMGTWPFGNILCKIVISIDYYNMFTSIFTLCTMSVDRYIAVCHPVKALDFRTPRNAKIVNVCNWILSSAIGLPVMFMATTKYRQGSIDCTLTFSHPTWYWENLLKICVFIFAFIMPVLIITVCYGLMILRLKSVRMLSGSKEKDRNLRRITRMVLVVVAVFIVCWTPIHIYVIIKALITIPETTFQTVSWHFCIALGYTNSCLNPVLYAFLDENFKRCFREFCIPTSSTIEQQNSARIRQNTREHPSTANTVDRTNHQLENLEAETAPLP", "experiment": "Agonist activity at mouse mu opioid receptor-1 expressed in CHO cell membranes assessed as [35S]GTPgammaS binding incubated for 60 mins by scintillation spectroscopic analysis", "assay_type": "functional"}, "[2]": {"target": "T1, Kappa-type opioid receptor", "experiment": "Antagonist activity at mouse kappa opioid receptor-1 expressed in CHO cell membranes assessed as inhibition of U50,488H-induced [35S]GTPgammaS binding incubated for 60 mins by scintillation spectroscopic analysis", "assay_type": "functional"}, "[3]": {"target": "T2, Alpha-2A adrenergic receptor (Homo sapiens) (UniProt P08913)", "T2 sequence (whole entry)": "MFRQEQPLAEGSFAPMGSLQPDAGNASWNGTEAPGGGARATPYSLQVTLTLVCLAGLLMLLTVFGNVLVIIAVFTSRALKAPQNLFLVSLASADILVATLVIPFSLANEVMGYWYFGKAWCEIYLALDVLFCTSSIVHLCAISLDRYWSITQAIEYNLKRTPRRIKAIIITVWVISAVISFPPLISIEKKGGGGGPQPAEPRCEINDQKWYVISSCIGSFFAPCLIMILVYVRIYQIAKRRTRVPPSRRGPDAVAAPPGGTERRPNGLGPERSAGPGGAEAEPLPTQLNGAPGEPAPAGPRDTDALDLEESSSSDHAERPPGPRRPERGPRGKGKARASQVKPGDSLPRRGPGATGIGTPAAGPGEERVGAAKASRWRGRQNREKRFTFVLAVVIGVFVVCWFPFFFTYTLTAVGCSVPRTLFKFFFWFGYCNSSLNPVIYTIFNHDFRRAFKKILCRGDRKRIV", "experiment": "Displacement of [3H]rauwolscine from recombinant human adrenergic alpha2A receptor expressed in MDCK cell membrane after 90 mins by microbeta scintillation counting method"}, "[4]": {"target": "T3, Alpha-2C adrenergic receptor (Homo sapiens) (UniProt P18825)", "T3 sequence (whole entry)": "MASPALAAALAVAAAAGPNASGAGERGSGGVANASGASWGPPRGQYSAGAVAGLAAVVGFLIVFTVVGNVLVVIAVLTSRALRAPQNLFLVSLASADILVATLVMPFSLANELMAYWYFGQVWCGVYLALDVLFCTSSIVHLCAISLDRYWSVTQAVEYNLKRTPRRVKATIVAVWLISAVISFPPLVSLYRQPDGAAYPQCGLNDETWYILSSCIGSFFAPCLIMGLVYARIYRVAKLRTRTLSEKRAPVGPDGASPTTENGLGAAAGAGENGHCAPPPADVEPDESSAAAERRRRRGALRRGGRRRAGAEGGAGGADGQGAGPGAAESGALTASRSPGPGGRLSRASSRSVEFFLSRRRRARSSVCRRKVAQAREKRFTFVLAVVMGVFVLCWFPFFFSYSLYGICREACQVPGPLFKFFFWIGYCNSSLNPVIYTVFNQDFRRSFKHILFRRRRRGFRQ", "experiment": "Displacement of [3H]rauwolscine from recombinant human adrenergic alpha2C receptor expressed in MDCK cell membrane after 90 mins by microbeta scintillation counting method"}, "Mus musculus [5]": {"test_system": "Mus musculus", "experiment": "Antinociceptive activity in sc dosed CD-1 mouse assessed as increase in reaction time measured 15 mins post dose by radiant heat tail flick assay", "assay_type": "functional", "conditions": "CD-1, sc, 0.25 h"}, "Mus musculus [6]": {"test_system": "Mus musculus", "experiment": "Potency index, ratio of morphine ED50 to compound ED50 in sc dosed CD-1 mouse", "assay_type": "functional"}, "Mus musculus [7]": {"test_system": "Mus musculus", "experiment": "Antinociceptive activity in po dosed CD-1 mouse assessed as increase in reaction time administered through gavage measured 15 mins post dose by radiant heat tail flick assay", "assay_type": "functional", "conditions": "CD-1, po, 0.25 h"}, "Mus musculus [8]": {"test_system": "Mus musculus", "experiment": "Antinociceptive activity in sc dosed CD-1 mouse assessed as increase in latency latency to respond with hind paw lick or shake/flutter measured 15 mins post dose by hot plate test", "assay_type": "functional", "conditions": "CD-1, sc, 0.25 h"}, "Mus musculus [9]": {"test_system": "Mus musculus", "experiment": "Antinociceptive activity in CD-1 mouse assessed as time required for peak effect at 1.5 mg/kg, sc by radiant heat tail flick assay", "assay_type": "functional"}, "Mus musculus [10]": {"test_system": "Mus musculus", "experiment": "Antinociceptive activity in 129Sv6 mouse assessed as increase in reaction time at 0.1 to 10 mg/kg, sc measured 15 mins post dose by radiant heat tail flick assay", "assay_type": "functional, organism-based"}, "Mus musculus [11]": {"test_system": "Mus musculus", "experiment": "Antinociceptive activity in CD-1 mouse assessed as increase in reaction time at 1.5 mg/kg, sc administered on day 6 after MOR1-exon1 antisense oligodeoxynucleotide injection on day 1, 3 and 5 by radiant heat tail flick assay", "assay_type": "functional, organism-based"}, "[12]": {"experiment": "Toxicity in CD-1 mouse assessed as time for drug tolerance at 1.5 mg/kg, sc bid at dosing intervals of 12 hrs", "assay_type": "organism-based", "conditions": "in vivo"}, "Mus musculus [13]": {"test_system": "Mus musculus", "experiment": "Antinociceptive activity in sc dosed CD-1 mouse assessed as increase in reaction time administered twice daily at dosing intervals of 12 hrs for 5 days by radiant heat tail flick assay", "assay_type": "functional", "conditions": "CD-1, sc"}, "Mus musculus [14]": {"test_system": "Mus musculus", "experiment": "Antinociceptive activity in sc dosed CD-1 mouse assessed as increase in reaction time administered four times per day for 5 days by radiant heat tail flick assay", "assay_type": "functional", "conditions": "CD-1, sc, 120 h"}, "[15]": {"experiment": "Toxicity in C57BL/6 mouse assessed as decrease in respiratory rate at 1.2 mg/kg, sc measured at 15 to 35 mins post dose", "assay_type": "organism-based", "conditions": "in vivo"}, "[16]": {"experiment": "Toxicity in C57BL/6 mouse assessed as decrease in respiratory rate at 3 mg/kg, sc measured at 15 to 35 mins post dose relative to control", "assay_type": "organism-based", "parameters": "scale not given: the % may be the effect or the level left", "conditions": "in vivo"}, "[17]": {"experiment": "Toxicity in C57BL/6 mouse assessed as conditioned place aversion at 1.3 to 3.2 mg/kg/day, ip measured for 30 mins post dose", "assay_type": "organism-based", "conditions": "in vivo, 0.5 h"}},
  "note": "Calls of active or inactive are those of the source. The calls are words filed in the database; no cut-off is given here.",
  "data": [
    {"smiles": "CC[C@@H]1CN2CC[C@]3(Nc4cccc(OC)c4C3=O)[C@@H]2C[C@@H]1/C(=C\\OC)C(=O)OC", "values": [
      {"measurement": "Ki", "setting": "[1]", "value": 24, "unit": "nM"},
      {"measurement": "EC50", "setting": "Mu-type opioid receptor", "value": 1.7, "unit": "nM"},
      {"measurement": "IC50", "setting": "[2]", "value": 31, "unit": "nM"},
      {"measurement": "inhibition", "setting": "[3]", "value": "Active"},
      {"measurement": "inhibition", "setting": "[4]", "value": "Active"},
      {"measurement": "ED50", "setting": "Mus musculus [5]", "value": 0.76, "unit": "mg/kg"},
      {"measurement": "Ratio ED50", "setting": "Mus musculus [6]", "value": 3},
      {"measurement": "ED50", "setting": "Mus musculus [7]", "value": 7.5, "unit": "mg/kg"},
      {"measurement": "ED50", "setting": "Mus musculus [8]", "value": 0.99, "unit": "mg/kg"},
      {"measurement": "Time", "setting": "Mus musculus [9]", "value": 15, "unit": "min"},
      {"measurement": "Activity", "setting": "Mus musculus [10]", "value": "Active"},
      {"measurement": "Activity", "setting": "Mus musculus [11]", "value": "inactive"},
      {"measurement": "Time", "setting": "[12]", "value": 29, "unit": "days"},
      {"measurement": "ED50", "setting": "Mus musculus [13]", "value": 1.1, "unit": "mg/kg"},
      {"measurement": "ED50", "setting": "Mus musculus [14]", "value": 1.6, "unit": "mg/kg"},
      {"measurement": "Activity", "setting": "[15]", "value": "Non-Toxic"},
      {"measurement": "Activity", "setting": "[16]", "value": 15, "unit": "%"},
      {"measurement": "Activity", "setting": "[17]", "value": "Non-Toxic"}
    ]}
  ]
}
